The record followed here is patent US6677368B2, “4-aryl substituted indolinones” (Sugen, Inc., priority 2000, dated 2004).

What all share (type): biochemical
One test has as its target T1, FLK-1 (Mus musculus, UniProt P35918).
T1 construct: GST-Flklcd purified from sf9 recombinant baculovirus transfomnation (SUGEN, Inc.); host or cells: Sf9 insect cells, recombinant baculovirus
Kind of test: GST-FLK-1 bioassay (tyrosine kinase activity on poly(glu-tyr)). The conditions noted are these: GST-Flk1, poly(glu-tyr) substrate, 0.5 μM ATP. The procedure: This assay analyzes the tyrosine kinase activity of GST-Flk1 on poly(glu-tyr) peptides.
1. Corning 96-well ELISA plates (Corning Catalog No. 25805-96).
2. poly(glu-tyr) 4:1, lyophilizate (Sigma Catalog No. P0275), 1 mg/ml in sterile PBS.
3. PBS Buffer: for 1 L, mix 0.2 g KH2PO4, 1.15 g Na2HPO4, 0.2 g KCl and 8 g NaCl in approx. 900 ml dH2O. When all reagents have dissolved, adjust the pH to 7.2 with HCl. Bring total volume to 1 L with dH2O.
4. PBST Buffer: to 1 L of PBS Buffer, add 1.0 ml Tween-20.
5. TBB—Blocking Buffer: for 1 L, mix 1.21 g TRIS, 8.77 g NaCl, 1 ml TWEEN-20 in approximately 900 ml dH2O. Adjust pH to 7.2 with HCl. Add 10 g BSA, stir to dissolve. Bring total volume to 1 L with dH2O. Filter to remove particulate matter.
6. 1% BSA in PBS: add 10 g BSA to approx. 990 ml PBS buffer, stir to dissolve. Adjust total volume to 1 L with PBS buffer, filter to remove particulate matter.
8. GST-Flklcd purified from sf9 recombinant baculovirus transfomnation (SUGEN, Inc.).
12. Kinase Dilution Buffer (KDB): mix 10 ml Hepes (pH 7.5), 1 ml 5M NaCl, 40 μL 100 mM sodium orthovanadate and 0.4 ml of 5% BSA in dH2O with 88.56 ml dH2O.
13. NUNC 96-well V bottom polypropylene plates, Applied Scientific Catalog #AS-72092
14. EDTA: mix 14.12 g ethylenediaminetetraacetic acid (EDTA) with approx. 70 ml dH2O. Add 10 N NaOH until EDTA dissolves. Adjust pH to 8.0. Adjust total volume to 100 ml with dH2O.
15. 1° and 2° Antibody Dilution Buffer: mix 10 ml of 5% BSA in PBS buffer with 89.5 ml TBST.
16. Anti-phosphotyrosine rabbit polyclonal antisera (SUGEN, Inc.)
17. Goat anti-rabbit HRP conjugate.
18. ABST solution: To approx. 900 ml dH2O add 19.21 g citric acid and 35.49 g Na2HPO4. Adjust pH to 4.0 with phosphoric acid. Add 2,2′-Azinobis(3-ethyl-benzthiazoline-6-sulfonic acid (ABTS, Sigma, Cat. No. A-1888, hold for approx. ½ hour, filter.
19. 30% Hydrogen Peroxide.
20. ABST/H2O2: add 3 μl of H2O2 to 15 ml of ABST solution.
1. Coat Corning 96-well ELISA plates with 2 μg of polyEY in 100 μl PBS/well, hold at room temperature for 2 hours or at […] overnight. Cover plates to prevent evaporation.
2. Remove unbound liquid from wells by inverting plate. Wash once with TBST. Pat the plate on a paper towel to remove excess liquid.
3. Add 100 μl of 1% BSA in PBS to each well. Incubate, with shaking, for 1 hr. at room temperature.
5. Soak wells with 50 mM HEPES (pH7.5, 150 μl/well).
6. Dilute test compound with dH2O/4% DMSO to 4 times the desired final assay concentration in 96-well polypropylene plates.
7. Add 25 μl diluted test compound to each well of ELISA plate. In control wells, place 25 μl of dH2O/4% DMSO.
8. Dilute GST-Flk1 0.005 μg (5 ng)/well in KDB.
9. Add 50 μl of diluted enzyme to each well.
10. Add 25 μl 0.5 M EDTA to negative control wells.
11. Add 25 μl of 40 mM MnCl2 with 4×ATP (2 μM) to all wells (100 μl final volume, 0.5 μM ATP final concentration in each well).
12. Incubate, with shaking, for 15 minutes at room temperature.
13. Stop reaction by adding 25 μl of 500 mM EDTA to each well.
14. Wash 3× with TBST and pat plate on paper towel to remove excess liquid.
15. Add 100 μl per well anti-phosphotyrosine antisera, 1:10,000 dilution in antibody dilution buffer. Incubate, with shaking, for 90 min. at room temperature.
17. Add 100 μl/well of goat anti-rabbit HRP conjugate (1:6,000 in antibody dilution buffer). Incubate, with shaking, for 90 minutes are room temperature.
19. Add 100 μl room temperature ABST/H2O2 solution to each well.
20. Incubate, with shaking for 15 to 30 minutes at room temperature.
21. If necessary, stop reaction by adding 100 μl of 0.2 M HCl to each well.
22. Read results on Dynatech MR7000 ELISA reader with test filter at 410 nM and reference filter at 630 nM.

For another test, the target named is EGFR (Homo sapiens, UniProt P00533). Kind of test: EGFR kinase inhibition.
EGFR, sequence (P00533 25-1210, species assumed): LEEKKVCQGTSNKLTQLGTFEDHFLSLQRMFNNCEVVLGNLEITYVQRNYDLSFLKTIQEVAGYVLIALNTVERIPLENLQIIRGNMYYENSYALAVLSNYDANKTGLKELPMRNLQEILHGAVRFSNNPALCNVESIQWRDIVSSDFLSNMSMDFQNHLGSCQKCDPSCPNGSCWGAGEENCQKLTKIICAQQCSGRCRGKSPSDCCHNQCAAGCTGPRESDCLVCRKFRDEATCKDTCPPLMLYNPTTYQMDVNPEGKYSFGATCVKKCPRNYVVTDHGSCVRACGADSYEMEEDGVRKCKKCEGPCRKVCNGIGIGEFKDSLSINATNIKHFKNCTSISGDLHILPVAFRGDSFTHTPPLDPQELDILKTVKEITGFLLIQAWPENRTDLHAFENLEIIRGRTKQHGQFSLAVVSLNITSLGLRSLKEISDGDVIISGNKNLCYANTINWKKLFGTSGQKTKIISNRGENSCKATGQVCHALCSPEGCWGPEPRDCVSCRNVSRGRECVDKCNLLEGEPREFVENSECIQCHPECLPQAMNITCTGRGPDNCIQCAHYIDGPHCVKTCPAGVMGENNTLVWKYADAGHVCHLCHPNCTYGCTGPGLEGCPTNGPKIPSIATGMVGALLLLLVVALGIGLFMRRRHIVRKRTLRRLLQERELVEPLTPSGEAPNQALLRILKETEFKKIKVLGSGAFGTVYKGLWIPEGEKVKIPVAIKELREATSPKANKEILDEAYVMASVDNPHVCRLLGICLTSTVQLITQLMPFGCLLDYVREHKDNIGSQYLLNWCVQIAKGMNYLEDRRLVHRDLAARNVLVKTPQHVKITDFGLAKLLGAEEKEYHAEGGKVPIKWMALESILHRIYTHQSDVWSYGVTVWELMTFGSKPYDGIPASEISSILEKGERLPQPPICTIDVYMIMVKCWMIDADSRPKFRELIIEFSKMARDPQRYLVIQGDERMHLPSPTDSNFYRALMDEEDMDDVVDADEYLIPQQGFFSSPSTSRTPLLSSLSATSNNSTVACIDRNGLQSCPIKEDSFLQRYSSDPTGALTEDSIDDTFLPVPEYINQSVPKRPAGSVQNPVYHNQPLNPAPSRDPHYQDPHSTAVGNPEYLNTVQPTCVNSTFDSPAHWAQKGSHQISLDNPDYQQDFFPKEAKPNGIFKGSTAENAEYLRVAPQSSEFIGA
In another test the target is FGFR3 (Homo sapiens, UniProt P22607). Description: FGFR3 kinase inhibition.
FGFR3, sequence (P22607 23-806, species assumed): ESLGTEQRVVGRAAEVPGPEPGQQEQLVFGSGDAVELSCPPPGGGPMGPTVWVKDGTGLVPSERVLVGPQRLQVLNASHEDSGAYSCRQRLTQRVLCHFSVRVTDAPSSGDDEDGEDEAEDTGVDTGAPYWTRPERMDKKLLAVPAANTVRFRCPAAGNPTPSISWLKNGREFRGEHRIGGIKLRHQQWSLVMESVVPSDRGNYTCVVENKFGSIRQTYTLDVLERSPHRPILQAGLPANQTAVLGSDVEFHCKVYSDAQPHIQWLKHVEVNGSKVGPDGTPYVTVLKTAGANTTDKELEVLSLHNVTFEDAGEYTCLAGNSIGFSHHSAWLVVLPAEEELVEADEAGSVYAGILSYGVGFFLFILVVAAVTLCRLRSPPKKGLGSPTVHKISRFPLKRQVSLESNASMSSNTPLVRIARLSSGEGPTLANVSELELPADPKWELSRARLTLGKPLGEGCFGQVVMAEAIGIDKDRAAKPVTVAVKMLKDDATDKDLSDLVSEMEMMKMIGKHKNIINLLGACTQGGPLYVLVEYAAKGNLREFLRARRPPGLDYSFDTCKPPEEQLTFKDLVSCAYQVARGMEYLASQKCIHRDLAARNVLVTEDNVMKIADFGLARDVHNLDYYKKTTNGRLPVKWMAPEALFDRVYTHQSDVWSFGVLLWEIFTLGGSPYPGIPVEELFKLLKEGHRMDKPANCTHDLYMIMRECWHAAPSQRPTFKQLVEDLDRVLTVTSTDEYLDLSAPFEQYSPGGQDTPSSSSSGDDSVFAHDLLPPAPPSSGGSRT

T1 sequence (P35918 784-1345 limits assumed): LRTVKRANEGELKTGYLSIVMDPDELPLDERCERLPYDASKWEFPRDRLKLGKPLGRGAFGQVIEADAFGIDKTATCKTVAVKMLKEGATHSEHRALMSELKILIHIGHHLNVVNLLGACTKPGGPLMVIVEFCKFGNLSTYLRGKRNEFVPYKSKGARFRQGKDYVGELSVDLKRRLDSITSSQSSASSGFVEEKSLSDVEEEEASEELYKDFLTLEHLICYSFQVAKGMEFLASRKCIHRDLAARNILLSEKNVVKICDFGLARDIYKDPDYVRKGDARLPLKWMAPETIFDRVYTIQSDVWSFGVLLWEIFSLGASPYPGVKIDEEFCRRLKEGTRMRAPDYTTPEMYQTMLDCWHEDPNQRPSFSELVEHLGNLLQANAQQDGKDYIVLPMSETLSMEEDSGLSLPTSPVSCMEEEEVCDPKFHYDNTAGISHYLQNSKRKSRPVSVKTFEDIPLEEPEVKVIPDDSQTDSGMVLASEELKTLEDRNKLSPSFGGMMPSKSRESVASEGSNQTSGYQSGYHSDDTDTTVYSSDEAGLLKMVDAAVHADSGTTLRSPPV

Turning to `Cc1[nH]c(/C=C2\C(=O)Nc3cccc(-c4ccc(F)cc4)c32)c(C)c1C(=O)NCCN1CCCC1` [Example 6, 5-[4-(4-Fluoro-phenyl)-2-oxo-1,2-dihydro-indol-3-ylidenemethyl]-2,4-dimethyl-1H-pyrrole-3-carboxylic Acid (2-Pyrrolidin-1-yl-ethyl)-amide], the figures for the IC50 at FLK-1 and on EGFR were 21 nM and 16200 nM, respectively.

With `CCN(CC)CCNC(=O)c1c(C)[nH]c(/C=C2\C(=O)Nc3cccc(-c4cccc(F)c4)c32)c1C` [Example 13, 5-[4-(3-Fluoro-phenyl)-2-oxo-1,2-dihydro-indol-3-ylidenemethyl]-2,4-dimethyl-1H-pyrrole-3-carboxylic Acid (2-Diethylamino-ethyl)-amide], the IC50 against FGFR3 is 21 nM; at FLK-1, 13 nM; at EGFR, 13100 nM.

Consider `CCOC(=O)c1c(C)[nH]c(/C=C2\C(=O)Nc3cccc(-c4cccc(F)c4)c32)c1CCCN1CCN(C)CC1` [Example 18, 5-[4-(3-Fluoro-phenyl)-2-oxo-1,2-dihydro-indol-3-ylidenemethyl]-2-methyl-4-[3-(4-methyl-piperazin-1-yl)-propyl]-1H-pyrrole-3-carboxylic Acid Ethyl Ester], for which the values for the IC50 at FGFR3, on FLK-1 and against EGFR were 350 nM, 420 nM and 9330 nM, respectively.

`Cc1[nH]c(/C=C2\C(=O)Nc3cccc(-c4ccc(Cl)cc4)c32)c(C)c1C(=O)NCCN1CCCC1` [Example 22, 5-[4-(4-Chloro-phenyl)-2-oxo-1,2-dihydro-indol-3-ylidenemethyl]-2,4-dimethyl-1H-pyrrole-3-carboxylic Acid (2-Pyrrolidin-1-yl-ethyl)-amide]: the IC50 against FGFR3 was found to be 74 nM; at FLK-1, 16 nM; against EGFR it was 15900 nM.

As for `CCN(CC)CCNC(=O)c1c(C)[nH]c(/C=C2\C(=O)Nc3cccc(-c4cccc(Cl)c4)c32)c1C` [Example 29, 5-[4-(3-Chloro-phenyl)-2-oxo-1,2-dihydro-indol-3-ylidenemethyl]-2,4-dimethyl-1H-pyrrole-3-carboxylic Acid (2-Diethylamino-ethyl)-amide], the IC50 against FGFR3 was 320 nM; on FLK-1, 41 nM; against EGFR, 12900 nM.

Take `COc1ccc(-c2cccc3c2/C(=C/c2[nH]c(C)c(C(=O)NCCN4CCCC4)c2C)C(=O)N3)cc1` [Example 38, 5-[4-(4-Methoxy-phenyl)-2-oxo-1,2-dihydro-indol-3-ylidenemethyl]-2,4-dimethyl-1H-pyrrole-3-carboxylic Acid (2-Pyrrolidin-1-yl-ethyl)-amide]: the values for the IC50 against FGFR3, on FLK-1 and at EGFR were 46 nM, 29 nM and 16400 nM, respectively.

For the compound `COc1cccc(-c2cccc3c2/C(=C/c2[nH]c(C)c(C(=O)NCCn4ccnn4)c2C)C(=O)N3)c1` [Example 48, 5-[4-(3-Methoxy-phenyl)-2-oxo-1,2-dihydro-indol-3-ylidenemethyl]-2,4-dimethyl-1H-pyrrole-3-carboxylic Acid (2-[1,2,3]Triazol-1-yl-ethyl)-amide], the IC50 on FGFR3 stood at 190 nM; against FLK-1, 12 nM.

For `COc1cccc(-c2cccc3c2/C(=C/c2[nH]c(C)c(C(=O)NCCN(C(C)C)C(C)C)c2C)C(=O)N3)c1` [Example 52, 5-[4-(3-Methoxy-phenyl)-2-oxo-1,2-dihydro-indol-3-ylidenemethyl]-2,4-dimethyl-1H-pyrrole-3-carboxylic Acid (2-Diisopropylamino-ethyl)-amide], the figures for the IC50 at FGFR3 and against FLK-1 were under 9.1 nM and 5 nM, respectively.

As to `Cc1[nH]c(/C=C2\C(=O)Nc3cccc(-c4ccc(Br)cc4)c32)c(C)c1C(=O)N1CCN(C)CC1` [Example 53], the results for the IC50 on FGFR3 and at FLK-1 were 680 nM and 21 nM, respectively.

As for `Cc1[nH]c(/C=C2\C(=O)Nc3cccc(-c4ccc(Br)cc4)c32)c(C)c1C(=O)N1C[C@@H](C)N[C@@H](C)C1` [Example 57, 4-(4-Bromo-phenyl)-3-[4-[(cis)-3,5-dimethyl-piperazine-1-carbonyl)-3,5-dimethyl-1H-pyrrol-2-ylmethylene]-1,3-dihydro-indol-2-one], the values for the IC50 against FGFR3 and on FLK-1 were 87 nM and 29 nM, respectively.

Take `Cc1cc(C(=O)NCCN2CCCC2)c(/C=C2\C(=O)Nc3cccc(-c4ccc(Br)cc4)c32)[nH]1` [Example 58, 2-[4-(4-Bromo-phenyl)-2-oxo-1,2-dihydro-indol-3-ylidenemethyl]-5-methyl-1H-pyrrole-3-carboxylic Acid (2-Pyrrolidin-1-yl-ethyl)-amide]: the IC50 on FGFR3 was determined as 220 nM; on FLK-1, 54 nM.

On to `Cc1[nH]c(/C=C2\C(=O)Nc3cccc(-c4ccc(Br)cc4)c32)c(C)c1C(=O)NCCN(C(C)C)C(C)C` [Example 60, 5-[4-(4-Bromo-phenyl)-2-oxo-1,2-dihydro-indol-3-ylidenemethyl]-2,4-dimethyl-1H-pyrrole-3-carboxylic Acid (2-Diisopropylamino-ethyl)-amide], for which the IC50 was found to be 550 nM on FGFR3, 18 nM at FLK-1 and 7010 nM against EGFR.

With `CCN(CC)CCNC(=O)c1c[nH]c(/C=C2\C(=O)Nc3cccc(-c4ccc(Br)cc4)c32)c1C` [Example 61, 5-[4-(4-Bromo-phenyl)-2-oxo-1,2-dihydro-indol-3-ylidenemethyl]-4-methyl-1H-pyrrole-3-carboxylic Acid (2-Diethylamino-ethyl)-amide], the concentration for half-maximal inhibition (IC50) was under 9.1 nM against FGFR3 and 6 nM on FLK-1.

As for `CCN(CC)CCNC(=O)c1c(C)[nH]c(/C=C2\C(=O)Nc3cccc(-c4cccc(Br)c4)c32)c1C` [Example 63, 5-[4-(3-Bromo-phenyl)-2-oxo-1,2-dihydro-indol-3-ylidenemethyl]-2,4-dimethyl-1H-pyrrole-3-carboxylic Acid (2-Diethylamino-ethyl)-amide], the IC50 against FGFR3 was 94 nM; against FLK-1, 43 nM; on EGFR, 15000 nM.
